Data set [1] concerns the target T1, stearoyl-CoA desaturase (SCD1) (Mus musculus, UniProt P13516).
T1 construct: Reactions are started by adding 50 μL of microsomes (1.25 mg/mL); from tissue; host or cells: liver microsomes of male ICR outbred mice on a high-carbohydrate, low-fat diet
T1 sequence (P13516 1-355): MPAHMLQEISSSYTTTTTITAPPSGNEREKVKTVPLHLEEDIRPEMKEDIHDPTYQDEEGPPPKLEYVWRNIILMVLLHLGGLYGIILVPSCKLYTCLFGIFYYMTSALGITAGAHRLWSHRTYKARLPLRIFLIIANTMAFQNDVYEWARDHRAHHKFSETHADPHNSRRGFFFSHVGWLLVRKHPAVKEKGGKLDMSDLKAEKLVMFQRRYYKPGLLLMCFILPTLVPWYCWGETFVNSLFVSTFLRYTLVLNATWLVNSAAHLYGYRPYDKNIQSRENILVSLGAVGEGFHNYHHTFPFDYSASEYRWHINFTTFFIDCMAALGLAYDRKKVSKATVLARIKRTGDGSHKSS
As to the kind of experiment: SCD inhibition assay using mouse liver microsomes (release of 3H2O from [9,10-3H]stearoyl-CoA). Format: biochemical. To be noted: 15 min incubation, 25° C., read-out: Microsomal IC50. On the procedure:
Measuring Stearoyl-CoA Desaturase Inhibition Activity of a Test Compound Using Mouse Liver Microsomes
Livers are immediately rinsed with cold 0.9% NaCl solution, weighed and minced with scissors. All procedures are performed at 4° C. unless specified otherwise. Livers are homogenized in a solution (1/3 w/v) containing 0.25 M sucrose, 62 mM potassium phosphate buffer (pH 7.0), 0.15 M KCl, 15 mM N-acetyleysteine, 5 mM MgCl2, and 0.1 mM EDTA using 4 strokes of a Potter-Elvehjem tissue homogenizer. The homogenate is centrifuged at 10,400×g for 20 min to eliminate mitochondria and cellular debris. The supernatant is filtered through a 3-layer cheesecloth and centrifuged at 105,000×g for 60 min. The microsomal pellet is gently resuspended in the same homogenization solution with a small glass/teflon homogenizer and stored at ˜70° C. The absence of mitochondrial contamination is enzymatically assessed. The protein concentration is measured using bovine serum albumin as the standard.
Desaturase activity is measured as the release of ^3H2O from [9,10-^3H]stearoyl-CoA. Reactions per assay point conditions are as follows: 2 μL 1.5 mM stearoyl-CoA, 0.25 μL 1 mCi/mL ^3H stearoyl CoA, 10 μL 20 mM NADH, 36.75 μL 0.1 M PK buffer (K2HPO4/NaH2PO4, pH 7.2). The test compound or control solution is added in a 1 μL volume. […] The plates are mixed and after 15 min incubation on a heating block (25° C.), the reactions are stopped by the addition of 10 μL 60% PCA. An aliquot of 100 μL is then transferred to a filter plate pretreated with charcoal and the plate centrifuged at 4000 rpm for 1 minute. The flow through containing the ^3H2O released by the SCD1 desaturation reaction is added to scintillation fluid and the radioactivity measured in a Packard TopCount. The data is analysed to identify the IC50 for test compounds and reference compounds.
The activity was defined in terms of % SCD enzyme activity remaining at the desired concentration of the test compound or as the IC50 concentration.
Background: Microsomes from liver hold many membrane-bound enzymes, among them those of drug oxidation.

The term IC50 denotes the concentration that inhibits the measured activity by half. One may read the melting point as the temperature, or range, at which the solid turns liquid.

As to `O=C(NCc1ccc(F)c(F)c1)c1cc(-n2cnn(Cc3ccc(F)cc3)c2=O)n[nH]1` [Example 1, N-(3,4-difluorobenzyl)-3-(1-(4-fluorobenzyl)-5-oxo-1H-1,2,4-triazol-4(5H)-yl)-1H-pyrazole-5-carboxamide], the melting point was 208 to 209 °C. In addition, the IC50 in data set [1] was 0.008 µM. With `O=C(NCc1cccnc1)c1cc(-n2cnn(Cc3ccc(F)cc3)c2=O)n[nH]1` [Example 2, 3-(1-(4-fluorobenzyl)-5-oxo-1H-1,2,4-triazol-4(5H)-yl)-N-(pyridin-3-ylmethyl)-1H-pyrazole-3-carboxamide], the melting point is 235 to 236 °C. Moreover, the IC50 in data set [1] came to 0.007 µM. Consider `O=C(NCc1ccccc1)c1cc(-n2cnn(Cc3ccc(F)cc3)c2=O)n[nH]1` [Example 2.1, N-benzyl-3-(1-(4-fluorobenzyl)-5-oxo-1H-1,2,4-triazol-4(5H)-yl)-1H-pyrazole-5-carboxamide], for which the IC50 in data set [1] came out at 0.006 µM. `CNC(=O)c1cc(-n2cnn(Cc3ccc(F)cc3)c2=O)n[nH]1` [Example 2.2, 3-(1-(4-Fluorobenzyl)-5-oxo-1H-1,2,4-triazol-4(5H)-yl)-N-methyl-1H-pyrazole-5-carboxamide] registered a melting point of 268 to 269 °C. Moreover, in data set [1], the IC50 amounted to 0.385 µM. Taken in the same sequence, the figures for `O=C(NCc1ccccn1)c1cc(N2CCN(Cc3ccc(F)cc3)C2=O)n[nH]1` [Example 3, 3-(3-(4-fluorobenzyl)-2-oxoimidazolidin-1-yl)-N-(pyridin-2-ylmethyl)-1H-pyrazole-5-carboxamide] were 235 to 237 °C and 0.045 µM. In turn, `Cc1cc(CNC(=O)c2cc(N3CCN(Cc4ccc(F)cc4)C3=O)n[nH]2)n[nH]1` [Example 4, 3-(3-(4-fluorobenzyl)-2-oxoimidazolidin-1-yl)-N-((5-methyl-1H-pyrazol-3-yl)methyl)-1H-pyrazole-5-carboxamide] gave a melting point of 254 to 255 °C. Further, in data set [1], the IC50 was found to be 0.088 µM. In the same order, the values of `Cc1cc(CNC(=O)c2cc(N3CCN(Cc4ccc(F)cc4)C3=O)n[nH]2)no1` [Example 5, 3-(3-(4-fluorobenzyl)-2-oxoimidazolidin-1-yl)-N-((5-methylisoxazol-3-yl)methyl)-1H-pyrazole-5-carboxamide] are 294 to 296 °C (dec.) and 0.037 µM.

Molecule `O=C(NCc1cccnc1)c1cc(N2CCN(Cc3ccc(F)cc3)C2=O)n[nH]1` [Example 6, 3-(3-(4-fluorobenzyl)-2-oxoimidazolidin-1-yl)-N-(pyridin-3-ylmethyl)-1H-pyrazole-5-carboxamide] registered a melting point of 251 to 253 °C. For the same molecule, in data set [1], the IC50 is 0.003 µM. On to `Cc1cc(CNC(=O)c2cc(-n3cnn(Cc4ccc(F)cc4)c3=O)n[nH]2)no1` [Example 7, 3-(1-(4-fluorobenzyl)-5-oxo-1H-1,2,4-triazol-4(5H)-yl)-N-((5-methylisoxazol-3-yl)methyl)-1H-pyrazole-5-carboxamide], for which the melting point lay within 276 to 277 °C. In data set [1], the IC50 turned out to be 0.022 µM. Taken in the same sequence, the figures for `O=C(NCc1ccccn1)c1cc(-n2cnn(Cc3ccc(F)cc3)c2=O)n[nH]1` [Example 8, 3-(1-(4-fluorobenzyl)-5-oxo-1H-1,2,4-triazol-4(5H)-yl)-N-(pyridin-2-ylmethyl)-1H-pyrazole-5-carboxamide] were 224 to 225 °C and 0.023 µM. Taken in the same sequence, the figures for `Cn1cc(CNC(=O)c2cc(N3CCN(Cc4ccc(F)cc4)C3=O)n[nH]2)cn1` [Example 8.1, 3-(3-(4-fluorobenzyl)-2-oxoimidazolidin-1-yl)-N-((1-methyl-1H-pyrazol-4-yl)methyl)-1H-pyrazole-5-carboxamide] were 244 to 245 °C and 0.122 µM. In the same order, the values of `O=C(NCc1nccs1)c1cc(N2CCN(Cc3ccc(F)cc3)C2=O)n[nH]1` [Example 8.2, 3-(3-(4-fluorobenzyl)-2-oxoimidazolidin-1-yl)-N-(thiazol-2-ylmethyl)-1H-pyrazole-5-carboxamide] are 272 to 274 °C and 0.008 µM. In the case of `O=C(NCc1ccccc1)c1cc(N2CCN(Cc3ccc(F)cc3)C2=O)n[nH]1` [Example 8.3, N-benzyl-3-(3-(4-fluorobenzyl)-2-oxoimidazolidin-1-yl)-1H-pyrazole-5-carboxamide], the IC50 in data set [1] came to 0.011 µM. For `NC(=O)c1cc(N2CCN(Cc3ccc(F)cc3)C2=O)n[nH]1` [Example 8.4, 3-(3-(4-fluorobenzyl)-2-oxoimidazolidin-1-yl)-1H-pyrazole-5-carboxamide], the melting point is 256 to 258 °C. Moreover, in data set [1], the IC50 was determined as 0.368 µM. The molecule `NC(=O)c1cc(-n2cnn(Cc3ccc(F)cc3)c2=O)n[nH]1` [Example 8.5, 3-(1-(4-fluorobenzyl)-5-oxo-1H-1,2,4-triazol-4(5H)-yl)-1H-pyrazole-5-carboxamide] gave a melting point of more than 270 °C. In addition, the IC50 in data set [1] worked out at 0.488 µM. On to `O=C(NCc1cocn1)c1cc(-n2cnn(Cc3ccc(F)cc3)c2=O)n[nH]1` [Example 8.6, 3-(1-(4-fluorobenzyl)-5-oxo-1H-1,2,4-triazol-4(5H)-yl)-N-(oxazol-4-ylmethyl)-1H-pyrazole-5-carboxamide], for which the melting point is 267 to 268 °C. Further, in data set [1], the IC50 was 0.165 µM. As to `O=C(NCc1ccncc1)c1cc(-n2cnn(Cc3ccc(F)cc3)c2=O)n[nH]1` [Example 8.8, 3-(1-(4-fluorobenzyl)-5-oxo-1H-1,2,4-triazol-4(5H)-yl)-N-(pyridin-4-ylmethyl)-1H-pyrazole-5-carboxamide], the melting point was 262 to 263 °C. Further, in data set [1], the IC50 was found to be 0.065 µM.

Values taken from patent US20130011361A1, “PYRAZOLE DERIVATIVES WHICH MODULATE STEAROYL-COA DESATURASE” (XENON PHARMACEUTICALS INC., priority 2009, published 2013).
